Data reported in ChEMBL document CHEMBL1131856, “Wasalexins A and B, new phytoalexins from wasabi: isolation, synthesis, and antifungal activity” (1999).

How the values were obtained:
Plenodomus lingam [1] = test: Antifungal activity against P. Lingam by spore germination assay after 24 hours; range is 40-50%; type: functional
Plenodomus lingam [2] = test: Antifungal activity against P. Lingam by spore germination assay after 24 hours; No detectable inhibitory activity; type: functional, organism-based

`COC(=O)c1cn(OC)c2ccccc12` showed an Inhibition (Plenodomus lingam [1]) of 50%.
For `CON1C(=O)/C(=C/N=C(SC)SC)c2ccccc21`, the Inhibition (Plenodomus lingam [1]) was 50%.
`CSC(=N/C=C1/C(=O)N(C)c2ccccc21)SC` was tested, and the Activity (Plenodomus lingam [2]) was “No detectable inhibitory activity”.
